{"source": "ChEMBL document CHEMBL1201862", "about": "“PubChem BioAssay data set” (2004)", "key": {"[1]": {"experiment": "Luminescence-based cell-based high throughput dose response assay to identify activators of the DAF-12 from the parasite S. stercoralis (ssDAF-12).", "type": "functional"}, "[2]": {"target": "T1, Oxysterols receptor LXR-beta (Homo sapiens, UniProt P55055)", "T1 sequence (P55055 whole entry)": "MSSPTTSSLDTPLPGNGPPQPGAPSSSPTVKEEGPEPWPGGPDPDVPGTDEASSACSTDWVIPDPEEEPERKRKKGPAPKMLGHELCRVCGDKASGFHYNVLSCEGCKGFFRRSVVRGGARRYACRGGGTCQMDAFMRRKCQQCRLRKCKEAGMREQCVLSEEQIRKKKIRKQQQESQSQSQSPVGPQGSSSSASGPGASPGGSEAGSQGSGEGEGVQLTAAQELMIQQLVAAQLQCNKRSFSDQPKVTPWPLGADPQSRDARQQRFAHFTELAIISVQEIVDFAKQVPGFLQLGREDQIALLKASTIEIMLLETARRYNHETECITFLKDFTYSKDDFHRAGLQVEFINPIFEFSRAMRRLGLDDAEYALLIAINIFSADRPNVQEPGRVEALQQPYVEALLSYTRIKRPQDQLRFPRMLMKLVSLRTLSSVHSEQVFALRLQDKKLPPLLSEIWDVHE", "experiment": "LXR agonists, Gal4 luciferase reporter, dose response, counter-screen for ssDAF-12 agonist project, cell-based, luminescence, HEK293, S. stercoralis campaign (AID 720737)", "type": "functional", "conditions": "read-out: IC50 (the source's name)"}, "[3]": {"tested_on": "HeLa", "experiment": "HeLa cell cytotoxicity, dose response, cytotoxicity control, ATP luminescence, cherry-pick samples (AID 687004)", "type": "functional, cell-based", "conditions": "Homo sapiens"}, "[4]": {"target": "T2, Replicative DNA helicase DnaB (Mycobacterium tuberculosis, UniProt P9WMR3)", "T2 sequence (P9WMR3 whole entry)": "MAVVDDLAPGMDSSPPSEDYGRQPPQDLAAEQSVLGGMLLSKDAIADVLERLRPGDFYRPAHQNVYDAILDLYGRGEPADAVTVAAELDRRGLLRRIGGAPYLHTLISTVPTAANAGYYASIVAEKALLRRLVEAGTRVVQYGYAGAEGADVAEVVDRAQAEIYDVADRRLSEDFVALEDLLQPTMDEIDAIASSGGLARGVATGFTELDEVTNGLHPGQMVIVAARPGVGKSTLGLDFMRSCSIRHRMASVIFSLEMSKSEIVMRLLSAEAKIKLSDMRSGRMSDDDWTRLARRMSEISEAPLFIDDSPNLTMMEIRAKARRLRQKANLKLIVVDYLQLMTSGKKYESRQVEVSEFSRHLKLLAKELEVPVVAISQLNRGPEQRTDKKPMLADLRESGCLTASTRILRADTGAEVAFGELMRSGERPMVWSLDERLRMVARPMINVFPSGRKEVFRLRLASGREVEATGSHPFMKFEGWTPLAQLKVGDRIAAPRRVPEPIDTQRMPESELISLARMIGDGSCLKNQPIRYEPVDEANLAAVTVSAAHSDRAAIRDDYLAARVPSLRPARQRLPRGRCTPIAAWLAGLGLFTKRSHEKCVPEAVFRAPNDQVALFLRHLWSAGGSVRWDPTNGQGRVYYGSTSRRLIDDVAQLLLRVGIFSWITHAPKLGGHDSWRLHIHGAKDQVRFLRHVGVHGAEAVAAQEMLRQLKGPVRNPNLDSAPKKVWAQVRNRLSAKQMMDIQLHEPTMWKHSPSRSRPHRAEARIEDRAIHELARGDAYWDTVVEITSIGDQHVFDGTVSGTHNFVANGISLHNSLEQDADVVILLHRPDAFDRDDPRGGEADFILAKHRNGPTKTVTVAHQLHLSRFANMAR", "experiment": "DnaB intein splicing inhibitors, dose response, biochemical, cell-free fluorescence (AID 449749)", "type": "functional"}, "[5]": {"target": "T3, Protein RecA (Mycobacterium tuberculosis, UniProt P9WHJ3)", "T3 sequence (P9WHJ3 whole entry)": "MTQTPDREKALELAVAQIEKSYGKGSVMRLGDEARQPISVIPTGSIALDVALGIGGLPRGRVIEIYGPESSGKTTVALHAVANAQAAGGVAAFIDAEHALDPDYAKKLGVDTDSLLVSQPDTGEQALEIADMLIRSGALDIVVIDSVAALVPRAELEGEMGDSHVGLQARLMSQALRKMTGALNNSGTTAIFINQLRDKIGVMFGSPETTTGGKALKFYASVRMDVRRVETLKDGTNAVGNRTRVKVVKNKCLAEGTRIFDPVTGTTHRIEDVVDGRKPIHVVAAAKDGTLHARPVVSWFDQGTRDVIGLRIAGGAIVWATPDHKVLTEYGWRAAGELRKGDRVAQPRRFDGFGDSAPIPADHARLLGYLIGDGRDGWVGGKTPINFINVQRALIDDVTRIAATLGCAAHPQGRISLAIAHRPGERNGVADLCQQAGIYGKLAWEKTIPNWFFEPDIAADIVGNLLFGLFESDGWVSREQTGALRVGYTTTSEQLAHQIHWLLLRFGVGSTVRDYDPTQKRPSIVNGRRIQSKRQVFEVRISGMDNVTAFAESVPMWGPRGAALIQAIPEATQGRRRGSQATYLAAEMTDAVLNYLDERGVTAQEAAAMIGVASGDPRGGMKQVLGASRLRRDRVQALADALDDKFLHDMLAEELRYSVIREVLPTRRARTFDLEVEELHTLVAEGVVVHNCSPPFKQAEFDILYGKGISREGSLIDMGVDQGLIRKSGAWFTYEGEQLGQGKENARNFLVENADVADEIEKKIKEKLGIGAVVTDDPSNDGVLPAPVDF", "experiment": "Fluorescence Cell-Free Homogeneous Dose Retest to Identify Inhibitors of RecA-Intein Splicing Activity. [Related pubchem assays (depositor defined):AID2097, AID2223, AID489010, AID492950]", "type": "functional"}, "[6]": {"target": "T4, Tyrosyl-DNA phosphodiesterase 2 (Homo sapiens, UniProt O95551)", "T4 sequence (O95551 whole entry)": "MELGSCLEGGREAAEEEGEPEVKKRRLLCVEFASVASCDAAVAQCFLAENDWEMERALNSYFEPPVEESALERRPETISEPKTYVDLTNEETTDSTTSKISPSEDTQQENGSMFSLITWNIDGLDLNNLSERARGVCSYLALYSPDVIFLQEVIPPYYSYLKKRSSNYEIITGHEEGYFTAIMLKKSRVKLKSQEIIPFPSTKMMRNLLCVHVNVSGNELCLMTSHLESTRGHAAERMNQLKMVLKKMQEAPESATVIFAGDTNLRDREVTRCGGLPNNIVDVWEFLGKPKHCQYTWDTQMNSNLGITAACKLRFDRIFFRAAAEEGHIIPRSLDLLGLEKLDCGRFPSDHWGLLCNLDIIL", "experiment": "human TDP2 enzyme inhibitors, dose response, biochemical, epi absorbance, IC50 (AID 743297)"}, "[7]": {"target": "T5, Galanin receptor type 3 (Homo sapiens, UniProt O60755)", "T5 sequence (O60755 whole entry)": "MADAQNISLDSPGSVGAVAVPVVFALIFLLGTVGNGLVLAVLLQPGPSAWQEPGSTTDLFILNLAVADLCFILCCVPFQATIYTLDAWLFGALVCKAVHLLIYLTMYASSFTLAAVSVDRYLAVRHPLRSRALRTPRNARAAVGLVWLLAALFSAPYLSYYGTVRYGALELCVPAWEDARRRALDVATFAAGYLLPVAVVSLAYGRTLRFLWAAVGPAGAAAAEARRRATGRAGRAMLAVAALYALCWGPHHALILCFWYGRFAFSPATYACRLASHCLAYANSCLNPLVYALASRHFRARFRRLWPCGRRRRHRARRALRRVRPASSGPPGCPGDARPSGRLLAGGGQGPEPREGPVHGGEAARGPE", "experiment": "Fluorescence-based cell-based primary high throughput dose response assay to identify antagonists of the Galanin Receptor 3 (GalR3).", "type": "functional"}, "[8]": {"experiment": "cells", "type": "functional, cell-based", "conditions": "HEK-CNG"}, "[9]": {"experiment": "growth suppression of PTEN-null colon cells, dose response, cell-based, HCT116 PTEN knockout (AID 1047);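 further: cells exposed to compound for 60 hours before readout; potency for loss of cell viability measured by luminescence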", "type": "functional"}, "[10]": {"experiment": "growth suppression of beta-catenin-knockout colon cells, dose response, cell-based, HCT116, human colon tumor (AID 1045);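 further: cells exposed to compound for 60 hours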", "type": "functional"}, "[11]": {"target": "Voltage-dependent T-type calcium channel subunit alpha-1H (Homo sapiens, UniProt O95180)", "sequence (O95180 whole entry)": "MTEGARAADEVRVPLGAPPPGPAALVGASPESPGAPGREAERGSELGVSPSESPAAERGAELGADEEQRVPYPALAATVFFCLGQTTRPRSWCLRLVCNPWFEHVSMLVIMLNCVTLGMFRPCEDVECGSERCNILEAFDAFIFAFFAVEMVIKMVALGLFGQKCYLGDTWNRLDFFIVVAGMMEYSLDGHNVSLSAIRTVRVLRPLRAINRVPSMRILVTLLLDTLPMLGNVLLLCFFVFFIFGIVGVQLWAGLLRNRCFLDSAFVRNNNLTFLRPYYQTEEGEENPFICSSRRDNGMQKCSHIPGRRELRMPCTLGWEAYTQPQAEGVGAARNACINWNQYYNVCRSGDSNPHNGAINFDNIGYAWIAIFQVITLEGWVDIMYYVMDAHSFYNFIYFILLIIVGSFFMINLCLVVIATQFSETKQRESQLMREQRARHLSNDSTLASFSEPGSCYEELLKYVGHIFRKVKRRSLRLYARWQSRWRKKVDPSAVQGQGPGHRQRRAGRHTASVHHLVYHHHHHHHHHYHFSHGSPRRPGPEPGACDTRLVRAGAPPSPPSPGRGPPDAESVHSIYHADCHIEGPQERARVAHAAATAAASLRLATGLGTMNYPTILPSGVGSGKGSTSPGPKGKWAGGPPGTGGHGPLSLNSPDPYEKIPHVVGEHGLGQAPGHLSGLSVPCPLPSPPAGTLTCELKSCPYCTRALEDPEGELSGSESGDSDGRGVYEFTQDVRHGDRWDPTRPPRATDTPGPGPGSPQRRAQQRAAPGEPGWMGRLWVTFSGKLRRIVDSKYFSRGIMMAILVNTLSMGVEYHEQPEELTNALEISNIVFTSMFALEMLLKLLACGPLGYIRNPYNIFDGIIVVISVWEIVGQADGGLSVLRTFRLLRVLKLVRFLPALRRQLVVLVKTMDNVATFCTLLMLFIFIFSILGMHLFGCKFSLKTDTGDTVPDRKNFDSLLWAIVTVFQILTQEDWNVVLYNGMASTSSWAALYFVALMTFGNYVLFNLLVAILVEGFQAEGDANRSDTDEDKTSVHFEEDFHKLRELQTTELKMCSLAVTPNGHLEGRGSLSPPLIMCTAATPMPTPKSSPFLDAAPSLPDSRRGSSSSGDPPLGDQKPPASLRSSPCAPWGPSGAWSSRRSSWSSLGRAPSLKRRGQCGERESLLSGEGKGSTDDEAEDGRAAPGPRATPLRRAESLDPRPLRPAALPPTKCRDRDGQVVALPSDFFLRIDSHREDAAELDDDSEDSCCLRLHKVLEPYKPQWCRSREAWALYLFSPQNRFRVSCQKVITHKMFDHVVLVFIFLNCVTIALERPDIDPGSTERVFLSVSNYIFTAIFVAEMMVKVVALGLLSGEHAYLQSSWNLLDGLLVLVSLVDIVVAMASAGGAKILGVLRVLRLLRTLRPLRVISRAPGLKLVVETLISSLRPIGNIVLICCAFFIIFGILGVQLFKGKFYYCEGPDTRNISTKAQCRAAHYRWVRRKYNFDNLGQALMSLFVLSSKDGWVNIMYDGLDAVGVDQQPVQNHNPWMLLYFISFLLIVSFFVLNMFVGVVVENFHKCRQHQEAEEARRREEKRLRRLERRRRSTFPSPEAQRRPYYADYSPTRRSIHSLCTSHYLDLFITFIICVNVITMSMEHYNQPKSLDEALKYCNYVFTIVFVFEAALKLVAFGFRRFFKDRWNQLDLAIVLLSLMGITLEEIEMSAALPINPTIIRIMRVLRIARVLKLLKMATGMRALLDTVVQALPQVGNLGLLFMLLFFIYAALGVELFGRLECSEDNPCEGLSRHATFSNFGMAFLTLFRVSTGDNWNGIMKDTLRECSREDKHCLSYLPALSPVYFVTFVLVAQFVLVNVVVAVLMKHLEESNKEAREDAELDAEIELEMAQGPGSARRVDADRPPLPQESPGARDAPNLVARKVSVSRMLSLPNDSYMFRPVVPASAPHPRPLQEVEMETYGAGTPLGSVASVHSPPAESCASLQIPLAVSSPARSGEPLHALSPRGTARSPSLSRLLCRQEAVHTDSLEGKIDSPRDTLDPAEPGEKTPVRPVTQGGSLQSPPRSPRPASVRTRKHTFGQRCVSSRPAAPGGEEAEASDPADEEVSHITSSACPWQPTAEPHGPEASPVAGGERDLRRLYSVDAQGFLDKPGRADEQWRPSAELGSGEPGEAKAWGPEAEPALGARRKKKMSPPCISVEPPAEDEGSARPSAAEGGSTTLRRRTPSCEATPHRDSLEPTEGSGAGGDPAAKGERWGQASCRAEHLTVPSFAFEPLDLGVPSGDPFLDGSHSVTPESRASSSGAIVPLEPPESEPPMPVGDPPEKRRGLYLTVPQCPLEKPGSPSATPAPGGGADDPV", "type": "functional"}, "[12]": {"experiment": "HEK293T cytotoxicity, dose response, cytotoxicity control for miR-122 modulator project, cell-based, inhibitor set, cherry-pick, set 2 (AID 720697)", "type": "functional"}, "[13]": {"experiment": "HEK293T cytotoxicity, dose response, cytotoxicity control for miR-122 modulator project, cell-based, activator set, cherry-pick (AID 720690);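 further: HEK293T human cells scored for general mammalian cytotoxicity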", "type": "functional"}}, "note": "Calls of active or inactive are those of the source.", "data": [{"smiles": "CC(=O)Nc1ccc(N2C(=O)CC(Sc3nc4ccccc4s3)C2=O)cc1", "note": "(stereo not drawn)", "values": [{"measurement": "IC50", "setting": "[1]", "value": "> 67.5 µM (inactive)"}, {"measurement": "EC50", "setting": "[2]", "value": "> 67.5 µM (inactive)"}]}, {"smiles": "COC(=O)C1=C(C)N(Cc2ccccc2)C(=S)N[C@H]1c1cccc(C(F)(F)F)c1", "values": [{"measurement": "AC50", "setting": "[3]", "value": "> 52 µM (inactive)"}]}, {"smiles": "COc1cc(/C=C2/C(=O)N(c3ccc([N+](=O)[O-])cc3)N=C2N2CCOCC2)ccc1O", "values": [{"measurement": "AC50", "setting": "[4]", "value": "19.7 µM (active)"}, {"measurement": "EC50", "setting": "[5]", "value": "6.68 µM (active)"}, {"measurement": "IC50", "setting": "[6]", "value": "> 128 µM (inactive)"}]}, {"smiles": "COc1cc(CCC(=O)OCC(=O)Nc2sccc2C(N)=O)cc(OC)c1OC", "values": [{"measurement": "IC50", "setting": "[7]", "value": "1.55 µM (active)"}, {"measurement": "EC50", "setting": "[8]", "value": "> 29.9 µM (inactive)"}]}, {"smiles": "Cc1ccc(OCC(O)Cn2c(=N)n(Cc3ccccc3)c3ccccc32)cc1", "note": "(stereo not drawn)", "values": [{"measurement": "EC50", "setting": "[9]", "value": "4.53 µM (active)"}, {"measurement": "EC50", "setting": "[10]", "value": "4.31 µM (active)"}, {"measurement": "EC50", "setting": "[11]", "value": "4.11 µM (active)"}, {"measurement": "AC50", "setting": "[12]", "value": "7.65 µM (active)"}, {"measurement": "AC50", "setting": "[13]", "value": "14.4 µM (active)"}]}]}
